This note sets out measurements from article PMC12501029, “Discovery of a CNS active GSK3 degrader using orthogonally reactive linker screening” (Nature Communications, 2025).

The subject of assay [1] is mouse liver proteome. The assay is described as follows: Whole proteome analysis of liver tissue from PK/PD study. Format: in vivo, female Balb/c mice. The settings on record: 5 mg/kg i.v., 4 h; GSK3α could not be quantified.
Assay [2] deals with T1, mouse GSK3β (Mus musculus, UniProt Q9WV60).
T1 construct: Immunoblotting based endogenous degradation profile of KH1 (24) in mouse embryonic fibroblast (MEF) cells; host or cells: MEF cells
Description: Immunoblot degradation in mouse embryonic fibroblast (MEF) cells, 4 h. It counts as cell-based. Here is the method:
HEK293, HAP1, HAP1 CRBN KO and SH-SY5Y cells were plated in either 6 cm plates or 6-well plates at varying densities (0.5–0.7 × 10^6 cells per plate or wells), and MEF cells were plated in 10 cm plates (1–1.2 × 10^6 cells per plate) depending on experimental set up in respective culturing condition as described above. Stock solutions of compounds were prepared as 10 mM in DMSO (Sigma–Aldrich). Working dilutions were made up fresh in DMSO and culturing media or differentiation media was refreshed prior to any compound treatments. For mode of action studies, cells were pre-treated with inhibitors for 2 h: 1 µM MG132 (Merck, 474790-5 mg), 1 µM MLN4924 (Merck, 5054770001) or 1 µM GSK3 inhibitor (compound 29), before treating with PROTACs for 2, 4 or 24 h as indicated in figure legends. Cells were washed twice with ice-cold PBS (Gibco), harvested in PBS and pelleted, cells were resuspended in RIPA buffer supplemented with complete EDTA-free protease inhibitor cocktail (Roche,11873580001, 1/10 mL) and phosSTOP (Roche, 04906845001, 1 tablet/10 mL) for 20 min lysis on ice then cleared via centrifugation at 16,000 × g, 4 °C for 20 min. […] Following clearance of lysates, protein concentrations were determined by the BCA assay (Fisher Scientific, 23225) or Bradford assay (Bio-rad). […]
(In general: In western blotting, separated proteins are transferred to a membrane and probed.)

T1 sequence (Q9WV60 whole entry): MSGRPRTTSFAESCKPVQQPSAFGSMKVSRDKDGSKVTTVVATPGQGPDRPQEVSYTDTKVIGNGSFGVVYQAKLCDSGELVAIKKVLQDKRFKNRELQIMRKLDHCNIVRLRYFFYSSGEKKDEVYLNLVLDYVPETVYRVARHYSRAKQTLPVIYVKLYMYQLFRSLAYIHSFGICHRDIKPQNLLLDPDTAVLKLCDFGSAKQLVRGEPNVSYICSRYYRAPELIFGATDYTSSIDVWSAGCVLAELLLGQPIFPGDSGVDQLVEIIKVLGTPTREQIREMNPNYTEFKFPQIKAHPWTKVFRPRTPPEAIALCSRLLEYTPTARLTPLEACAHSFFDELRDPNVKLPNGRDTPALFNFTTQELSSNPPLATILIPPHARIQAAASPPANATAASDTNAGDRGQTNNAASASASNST

For the compound `Cn1nc(N2CCC(=O)NC2=O)c2ccc(CN3CCN(Cc4ccc(-c5cn(-c6ccc(-c7cn8nccc(C(=O)Nc9cnccc9N9CCOCC9)c8n7)cc6)nn5)nc4)CC3)cc21` [compound 24], the “proteome wide specificity in liver” value in assay [1] is recorded as “high levels of proteome wide specificity for GSK3β removal”. Also, the DC50 – broadly, the midpoint of the concentration-degradation curve – in assay [2] lay in the range of 0.1 to 1 nM.
